Laboratory results from patent US6410054B1, “Immediate release eplerenone compositions” (G. D. Searle & Co., priority 1998, dated 2002).

Experiment: Treatment of hypertension study: safety
Type: in vivo, humans
Description: The safety and efficacy of a range of doses of eplerenone in the treatment of hypertension relative to placebo were evaluated in a multi-center, randomized, double-blind, placebo-lead-in, parallel group study. […] The primary efficacy variable was the change in cuff diastolic blood pressure (ADBP; sitting) measured at trough plasma levels after eight weeks of double blind treatment. The secondary variables measured were the change in trough cuff systolic blood pressure (ΔSBP; sitting), change in 24 hour mean diastolic blood pressure (ΔDBP), and change in 24 hour mean systolic blood pressure (ΔSBP). The primary and secondary efficacy variables were analyzed to compare BID versus QD dosing regimens for each eplerenone dose group, and both eplerenone and spironolactone versus placebo. Changes in plasma renin and serum aldosterone after eight weeks of dosing were also analyzed as secondary measures of efficacy.
All eplerenone doses lowered cuff diastolic and systolic pressures from baseline after eight weeks of treatment compared to placebo. […] There was, however, a trend toward greater reduction with the BID dosing regimen. […] Over the course of the study, the mean change in heart rate from baseline was minimal in all treatment groups, with the largest mean increase and decrease in heart rate being +2 beats/minute and −1.8 beats/minute, respectively. […] Safety was assessed by comparing the incidence of adverse events, withdrawals, and the results of urinalysis, hematology and biochemistry laboratory tests across the treatment group to the placebo group.

[1] = all eplerenone treatment groups

Q: Which “adverse side effects at the highest dose administered” value (1000 mg) does the source give for `COC(=O)C1CC2=CC(=O)CCC2(C)C23OC2CC2(C)C(CC[C@@]24CCC(=O)O4)C13` (stereo partly drawn) [eplerenone, methyl hydrogen 9,11α-epoxy-17α-hydroxy-3-oxopregn-4-ene-7α,21-dicarboxylate, γ-lactone] here?
A: Its value is “No adverse side effects”.

Q: And the potassium [1]?
A: Its potassium is “small but consistent increases”.

Q: What about the sodium [1] of the same compound?
A: The sodium was “decreases”.

Q: And the tolerability (each eplerenone dosing regimen)?
A: Its tolerability is “well tolerated”.

Q: And the “BUN, uric acid levels compared to placebo” value (eplerenone treatment groups)?
A: The value was “increases”.

Q: And the “urine pH compared to placebo” value (eplerenone treatment groups)?
A: The value was “decreases”.
